Entries after “also recorded” stand apart in the source; their conditions may differ. Like-named read-outs stand apart in the source and are kept apart here.
Assays:
[1] = biological target: T1, 11β-HSD1 Reductase (Rattus norvegicus, UniProt P16232); test: 11β-HSD1 reductase assay in rat Leydig cell homogenates; settings: for Leydig Cell 11β-HSD1 Reductase [S]= 600 nM: rat Leydig cell homogenates, 600 nM 11-dehydro-corticosterone;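 on all read-outs here: rat Leydig cell homogenate incubated 20 min at 37 °C, pH 7.4, with tritiated 11-dehydro-corticosterone and 3 mM NADPH, product measured by HPLC, inhibition from triplicate dose–response curves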
[2] = biological target: T2, 11β-HSD1 Dehydrogenase (Rattus norvegicus, UniProt P16232); test: Table 1: inhibition of 11β-HSD1 dehydrogenase; format: biochemical; settings: Table 1, inhibition in words
[3] = biological target: T3, 11β-HSD2 (Ovis aries, UniProt P50168); test: 11β-HSD2 enzyme activity in sheep kidney microsomes; format: biochemical; settings: for inhibitors of 11β-HSD2 (summary in words): summary of the screening
T3 construct: incubating sheep kidney microsomal fraction (6.5 μg protein) with 50 nM corticosterone; from tissue; host or cells: sheep kidney microsomal fraction
T3 sequence (P50168 1-427): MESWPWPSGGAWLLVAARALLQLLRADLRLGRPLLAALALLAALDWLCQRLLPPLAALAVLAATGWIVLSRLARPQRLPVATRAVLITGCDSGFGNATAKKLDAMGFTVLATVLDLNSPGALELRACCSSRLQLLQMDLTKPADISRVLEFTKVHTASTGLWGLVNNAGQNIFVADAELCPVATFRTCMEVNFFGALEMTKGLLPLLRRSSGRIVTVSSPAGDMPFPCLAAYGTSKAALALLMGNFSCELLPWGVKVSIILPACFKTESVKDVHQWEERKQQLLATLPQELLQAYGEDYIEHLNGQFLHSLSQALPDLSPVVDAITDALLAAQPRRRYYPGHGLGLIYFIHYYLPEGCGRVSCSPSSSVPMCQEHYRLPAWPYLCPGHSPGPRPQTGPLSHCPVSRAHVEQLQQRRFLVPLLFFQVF
From the text: The enzymatic reaction was termninated by addition of methanol and synthesis of 11-dehydro-corticosterone was quantitated by HPLC as described above.

[4] = biological target: T2, 11β-HSD1 Dehydrogenase; test: 11β-HSD1 dehydrogenase assay in rat Leydig cell homogenates; format: biochemical; design: Freshly prepared rat Leydig cell homogenates were chosen since they provide a rich and reliable source of both 11β-HSD1 dehydrogenase and reductase; from tissue; host or cells: rat testicular Leydig cells, homogenate; settings: for inhibitors of 11β-HSD1 dehydrogenase (summary in words): summary of the screening; for Leydig Cell 11β-HSDl Dehydrogenase [S] = 600 nM: progesterone and androgen derivatives;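 on all read-outs here: tritiated corticosterone conversion by 11β-HSD1 dehydrogenase in Leydig homogenates with 3 mM NADP at pH 8.4, 37 °C for 10 min, products resolved by HPLC, inhibition relative to uninhibited enzyme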
[5] = biological target: T4, 11β-HSD2 Dehydrogenase (Ovis aries, UniProt P50168); test: Table 1: inhibition of 11β-HSD2 dehydrogenase; format: biochemical; settings: Table 1, inhibition in words
T4 sequence (P50168 1-427): T3 sequence (P50168 1-427)

[6] = biological target: T1, 11β-HSD1 Reductase; test: Table 1: inhibition of 11β-HSD1 reductase; format: biochemical; settings: Table 1, inhibition in words
[7] = system: rat aortic rings; test: Contractile response of rat aortic rings to phenylephrine; format: cell-based; settings: rings incubated 24 h with steroid (corticosterone 10 nmol/L; 11-dehydro-corticosterone 100 nmol/L)
Description: Male Sprague-Dawley (150-200 g) rats were anesthetized with pentobarbital (50 mg/kg IP), and a median sternotomy was performed followed by the rapid removal of the thoracic aorta. The adventitia was removed, but the endothelium was left intact. The aorta was cut into 2-3 mm rings and individual rings were placed into a single well of a twenty four well culture plate and incubated at 37° C. under 95% 02-5% CO2. Each well contained 1 mL of DMEM/F12 containing 1% fetal bovine serum, streptomycin (100 μg/ml), penicillin (100 units/ml) and amphotericin (0.25 μg/ml). Aortic rings were incubated for 24 hours prior to contractility measurements with the following combinations of steroids, and antisense/nonsense oligonucleotides (3 μmol/L):
Antisense phosphorothioate oligonucleotides, targeted to block either 11β-HSD2 or 11β-HSD1 gene expression, were obtained from Research Genetics, Huntsville Ala. Antisense oligomers complementary to 20 bp sequences spanning the ribosome binding/translation start site were used. Oligomer sequences were: 5′-CATAACTGCCGTCCAACAGC-3′ (SEQ ID NO. 1) for 11β-HSD1 Antisense and 5′-AGGCCAGCGCTCCATGACTT-3′ (SEQ ID NO 2) for 11β-HSD2 antisense. In control experiments the corresponding sense sequence was used as the nonsense oligomer. Antisense and nonsense oligomers were added directly to each well at 20 μg/10:1 sterile H2O per well for a final concentration of 3 μmol/L.
For contraction measurements, aortic rings were suspended by tungsten wires with 1 g of tension and placed in a vessel bath containing serum free DMEM/F12 media at 37° C. aerated with 95% O2-5% CO2, at pH 7.4. Vessels were equilibrated for 20 minutes and then tested with phenylephrine (1 nmol/L-10 μmol/L). Although phenylephrine is structurally not a catecholamine, it is considered to be a functional catecholamine as it activates both a and P adrenoceptors. Due to its favorable stability characteristics, it is widely used as a catecholamine substitute in experiments of this nature. The intensity of contraction was assessed by use of a Narishige micromanipulator and model FT03 force transducer (Grass Instrument Co. West Warwick, R.I.). Measurements were recorded on computer using the Labview 4.1 Virtual Instrument System (National Instruments, Austin, Tex.).

[8] = 11β-HSD2, sheep kidney microsomes, 50 nM corticosterone, NAD+, aldosterone, cortisol, corticosterone series, read-out: Dehydrogenase [S] = 50 nM
[9] = rat Leydig cell homogenates, 600 nM corticosterone, NADP, corticosteroid series, read-out: Leydig Cell 11β-HSD1 Dehydrogenase [S]= 600 nM
[10] = rat Leydig cell homogenates, 600 nM corticosterone

T1 sequence (P16232 whole entry): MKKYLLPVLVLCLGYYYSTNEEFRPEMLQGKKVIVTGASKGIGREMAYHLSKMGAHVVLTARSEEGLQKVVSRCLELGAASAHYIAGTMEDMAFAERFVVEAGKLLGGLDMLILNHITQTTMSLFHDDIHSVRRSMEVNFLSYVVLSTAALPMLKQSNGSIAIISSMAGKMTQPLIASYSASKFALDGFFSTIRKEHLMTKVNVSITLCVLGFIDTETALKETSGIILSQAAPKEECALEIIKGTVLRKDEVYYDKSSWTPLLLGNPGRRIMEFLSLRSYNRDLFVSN
T2 sequence (P16232 whole entry): as above

C[C@]12CCC(=O)C[C@H]1CC[C@@H]1[C@H]2[C@@H](O)C[C@]2(C)[C@@H](C(=O)CO)CC[C@@H]12 [5α-DH-Corticosterone, 5α-Pregnan-11β,-21-diol-3,20-dione]
IC50 [1]: 6300 nM
11β-HSD1 Dehydrogenase [2]: Potent Inhibitor
IC50 [3]: 150 nM
inhibitors of 11β-HSD2 (summary in words) [3]: potent inhibitors; also recorded: high potency
IC50 [4]: 2100 nM
inhibitors of 11β-HSD1 dehydrogenase (summary in words) [4]: potent inhibitors; also recorded: high potency
11β-HSD2 Dehydrogenase [5]: Potent Inhibitor
11β-HSD1 Reductase [6]: No inhibition

C[C@]12C[C@H](O)[C@H]3[C@@H](CCC4=CC(=O)CC[C@@]43C)[C@@H]1CC[C@@H]2C(=O)CO [corticosterone, reference compound]
amplification of the contractile response to phenylephrine by the steroid [7]: amplified contractile responses

C[C@]12CC[C@@H](O)C[C@H]1CC[C@@H]1[C@H]2[C@@H](O)C[C@]2(C=O)[C@@H](C(=O)CO)CC[C@@H]12 [3α,5α-TH-Aldosterone, 5α-Pregnan-3α,11β,21-triol-20-one-18-al]
IC50 [1]: > 100000 nM
Leydig Cell 11β-HSD1 Reductase [S]= 600 nM ([1]; NADPH, corticosteroid series): inactive
11β-HSD1 Dehydrogenase [2]: Moderate Inhibitor
IC50 [3, 8]: 500 nM
inhibitors of 11β-HSD2 (summary in words) ([3]; listed as 3α,5α-TH -aldosterone): potent inhibitors
inhibitors of 11β-HSD2 (summary in words) ([3]; listed as 3α,5α-TH-aldosterone): high potency
IC50 [4, 9]: 25000 nM
11β-HSD2 Dehydrogenase [5]: Potent Inhibitor
11β-HSD1 Reductase [6]: No Inhibition

C[C@]12C[C@H](O)[C@@H]3[C@@H](CCC4=CC(=O)CC[C@@]43C)[C@H]1CC[C@@H]2O [11β-OH-Testosterone, 4-Androsten-11β,17β-diol-3-one]
IC50 [1]: > 100000 nM
Leydig Cell 11β-HSD1 Reductase [S]= 600 nM ([1]; progesterone and androgen derivatives): inactive
11β-HSD1 Dehydrogenase [2]: Inhibitor (Non-Selective)
IC50 [3]: 350 nM
inhibitors of 11β-HSD2 (summary in words) ([3]; listed as 11β-OH-testosterone): potent inhibitors; also recorded: high potency
IC50 [4]: 9000 nM
inhibitors of 11β-HSD1 dehydrogenase (summary in words) [4]: potent inhibitors
inhibitors of 11β-HSD1 dehydrogenase (summary in words) ([4]; listed as 11β-OH-testosterone): high potency
inhibitors of 11β-HSD1 dehydrogenase (summary in words) ([4]; listed as 11β-hydroxy-testosterone): potently inhibit
11β-HSD2 Dehydrogenase [5]: Inhibitor (Non-Selective)
11β-HSD1 Reductase [6]: No Inhibition

C[C@]12CCC(=O)C=C1CC[C@@H]1[C@H]2C(=O)C[C@]2(C)C(=O)CC[C@H]12 (stereo in doubt) [11 -Keto-Androstenedione, 4-Androsten-11,3,17-trione]
IC50 [1]: 21000 nM
11β-HSD1 Dehydrogenase [2]: No Inhibition
IC50 [3]: > 10000 nM
Sheep kidney 11β-HSD2 [S] = 50 nM ([3]; sheep kidney microsomes, corticosterone substrate, progesterone and androgen derivatives): inactive
IC50 [4]: > 100000 nM
Leydig Cell 11β-HSDl Dehydrogenase [S] = 600 nM [4, 10]: inactive
11β-HSD2 Dehydrogenase [5]: No Inhibition
11β-HSD1 Reductase [6]: Selective Inhibitor

C[C@]12CC[C@@H](O)C[C@H]1CC[C@@H]1[C@H]2[C@@H](O)C[C@]2(C)[C@@H](C(=O)CO)CC[C@@H]12 [3α,5α-TH-Corticosterone, 5α-Pregnan-3α,11β,21-triol-20-one]
Leydig Cell 11β-HSD1 Reductase [S]= 600 nM ([1]; NADPH, corticosteroid series): weak inhibitor
11β-HSD1 Dehydrogenase [2]: Potent Inhibitor
IC50 [3, 8]: 260 nM
inhibitors of 11β-HSD2 (summary in words) [3]: potent inhibitors; also recorded: high potency
IC50 [4, 9]: 1300 nM
inhibitors of 11β-HSD1 dehydrogenase (summary in words) [4]: potent inhibitors; also recorded: high potency
11β-HSD2 Dehydrogenase [5]: Potent Inhibitor
11β-HSD1 Reductase [6]: No Inhibition

C[C@]12CC[C@@H](O)C[C@H]1CC[C@@H]1[C@H]2C(=O)C[C@]2(C)[C@@H](C(=O)CO)CC[C@@H]12 [3α,5α-TH-11-dehydrocorticosterone, 5α-Pregnan-3α,21-diol-11,20-dione]
IC50 [1]: 700 nM
inhibitors of 11β-HSD1 reductase (summary in words) ([1]; summary of the screening): potent inhibitors; also recorded: high potency
11β-HSD1 Dehydrogenase [2]: No Inhibition
IC50 [3, 8]: 800 nM
inhibitors of 11β-HSD2 (summary in words) [3]: potent inhibitors; also recorded: high potency
IC50 [4, 9]: 8000 nM
11β-HSD2 Dehydrogenase [5]: Potent Inhibitor
11β-HSD1 Reductase [6]: Potent Inhibitor

C[C@]12CC(=O)[C@@H]3[C@@H](CCC4=CC(=O)CC[C@@]43C)[C@H]1CC[C@@H]2O [11 -Keto-Testosterone, 4-Androsten-17β-ol-11,3-dione]
IC50 [1]: 18000 nM
11β-HSD1 Dehydrogenase [2]: No Inhibition
IC50 [3]: 1350 nM
inhibitors of 11β-HSD2 (summary in words) [3]: potent inhibitors; also recorded: high potency
IC50 [4]: > 100000 nM
Leydig Cell 11β-HSDl Dehydrogenase [S] = 600 nM [4, 10]: inactive
11β-HSD2 Dehydrogenase [5]: No Inhibition
11β-HSD1 Reductase [6]: Selective Inhibitor

C[C@]12CC(=O)[C@H]3[C@@H](CCC4=CC(=O)CC[C@@]43C)[C@@H]1CC[C@@H]2C(=O)CO [11-dehydro-corticosterone]
amplification of the contractile response to phenylephrine by the steroid [7]: amplified the contractile response
IC50 [3, 8]: 470 nM
inhibitors of 11β-HSD2 (summary in words) [3]: potent inhibitors; also recorded: high potency
IC50 [4, 9]: > 100000 nM

C[C@]12CC[C@@H](O)C[C@H]1CC[C@@H]1[C@H]2[C@@H](O)C[C@]2(C)C(=O)CC[C@H]12 [3α,5β-reduced- 11β-OH- androstenedione]
11β-HSD1 Dehydrogenase [2]: Moderate Inhibitor
11β-HSD2 Dehydrogenase [5]: Potent Inhibitor (Non-Selective)
11β-HSD1 Reductase [6]: No Inhibition
